Results published in BindingDB's records for doi:10.1016/j.bmcl.2020.127353 (Lanzhou University, 2020).
Where a SMILES comes first, the peptide text is derived from it. The star is where a group is joined. Stearoyl = CCCCCCCCCCCCCCCCCC(=O)*

Assay: Binding affinity to NK1R (unknown origin) expressed in HEK293 cells assessed as reduction in cell viability incubated for 96 hrs by MTT assay

CCCCCCCCCCCCCCCCCC(=O)N[C@@H](CCCCN)C(=O)N[C@@H](Cc1c[nH]c2ccccc12)C(=O)N[C@@H](CCCCN)C(=O)N[C@@H](CC(C)C)C(=O)N[C@@H](CCC(=O)O)C(=O)N[C@@H](CCCCN)C(=O)N[C@@H](CCCCN)C(=O)N[C@H](C(=O)NCC(=O)N[C@@H](C)C(=O)N[C@H](C(=O)N[C@@H](CC(C)C)C(=O)N[C@H](C(=O)N[C@@H](CS)C(=O)N[C@H](C(=O)N[C@@H](CC(C)C)C(=O)N[C@@H](CCCNC(=N)N)C(=O)N1CCC[C@H]1C(=O)N[C@@H](CCCCN)C(=O)N1CCC[C@H]1C(=O)N[C@@H](CCC(N)=O)C(=O)N[C@@H](CCC(N)=O)C(=O)N[C@@H](Cc1ccccc1)C(=O)N[C@@H](Cc1ccccc1)C(=O)NCC(=O)N[C@@H](CC(C)C)C(=O)N[C@@H](CCSC)C(N)=O)C(C)C)[C@@H](C)CC)C(C)C)[C@@H](C)CC (Stearoyl-KWKLEKKIGAVLICVLRPKPQQFFGLM-NH2)
EC50: 5.3 µM
